Laboratory results as given in ChEMBL document CHEMBL1201862, “PubChem BioAssay data set” (2004).
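A five-concentration, 48-hour dose response in 96-well plates underlies each endpoint, interpolated linearly between surrounding concentrations. GI50 marks 50% less growth.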 Active and inactive are the calls of the source. Rule as the data show it: active = GI50 up to about 1.1 µM and inactive = higher.

Assays:
Experiment in all cases: NCI anticancer screen, dose series, 48 h
NCI-H522 = tested on: NCI-H522
LOX IMVI = tested on: LOX IMVI
SW-620 = tested on: SW-620
TK-10 = tested on: TK-10
BT-549 = tested on: BT-549
COLO 205 = tested on: COLO 205
DU-145 = tested on: DU-145
HOP-62 = tested on: HOP-62
MDA-MB-435 = tested on: MDA-MB-435
EKVX = tested on: EKVX
RPMI-8226 = tested on: RPMI-8226
OVCAR-3 = tested on: OVCAR-3
K562 = tested on: K562
HCT-116 = tested on: HCT-116
A498 = tested on: A498
SF-295 = tested on: SF-295
SK-OV-3 = tested on: SK-OV-3
UACC-62 = tested on: UACC-62
CCRF-CEM = tested on: CCRF-CEM
786-0 = tested on: 786-0
UACC-257 = tested on: UACC-257
PC-3 = tested on: PC-3
OVCAR-5 = tested on: OVCAR-5
A549 = tested on: A549
IGROV-1 = tested on: IGROV-1
SK-MEL-5 = tested on: SK-MEL-5
OVCAR-4 = tested on: OVCAR-4
MOLT-4 = tested on: MOLT-4
NCI/ADR-RES = tested on: NCI/ADR-RES
M14 = tested on: M14
NCI-H226 = tested on: NCI-H226
ACHN = tested on: ACHN
CAKI-1 = tested on: CAKI-1
UO-31 = tested on: UO-31
KM12 = tested on: KM12
HOP-92 = tested on: HOP-92
Hs-578T = tested on: Hs-578T
MDA-N = tested on: MDA-N
HCC 2998 = tested on: HCC 2998
NCI-H23 = tested on: NCI-H23
SR = tested on: SR
SN12C = tested on: SN12C
Malme-3M = tested on: Malme-3M
HL-60 = tested on: HL-60
OVCAR-8 = tested on: OVCAR-8
NCI-H460 = tested on: NCI-H460
HT-29 = tested on: HT-29
SK-MEL-28 = tested on: SK-MEL-28
MCF7 = tested on: MCF7
SNB-19 = tested on: SNB-19
SNB-75 = tested on: SNB-75
MDA-MB-231 = tested on: MDA-MB-231
SF-539 = tested on: SF-539
RXF 393 = tested on: RXF 393
SF-268 = tested on: SF-268

Measured: GI50

COc1cc2c[n+](C)c3c4cc(OC)c(OC)cc4ccc3c2cc1OC
inactive: NCI-H522 7.11 µM | LOX IMVI 54 µM | SW-620 > 66.1 µM | TK-10 > 100 µM | BT-549 20.4 µM | COLO 205 11.8 µM | DU-145 25 µM | HOP-62 97.7 µM | MDA-MB-435 > 85.7 µM | EKVX > 63 µM | RPMI-8226 57.1 µM | OVCAR-3 29.3 µM | K562 16.6 µM | HCT-116 68.5 µM | A498 > 100 µM | SF-295 69 µM | SK-OV-3 88.9 µM | UACC-62 > 82.8 µM | CCRF-CEM 18.8 µM | 786-0 > 58.5 µM | UACC-257 74.1 µM | PC-3 74.1 µM | OVCAR-5 > 100 µM | A549 58.7 µM | IGROV-1 23 µM | SK-MEL-5 32 µM | OVCAR-4 > 38.5 µM

[O-][n+]1onc(-c2ccccc2)c1-c1no[n+]([O-])c1-c1c(-c2ccccc2)no[n+]1[O-]
inactive: NCI-H522 18.8 µM | LOX IMVI 2.82 µM | MOLT-4 3.56 µM | SW-620 4.1 µM | NCI/ADR-RES 3.98 µM | M14 12.1 µM | NCI-H226 15.2 µM | TK-10 44.5 µM | ACHN 4.81 µM | CAKI-1 12.8 µM | COLO 205 6.37 µM | UO-31 7.4 µM | KM12 7.43 µM | HOP-92 10.6 µM | DU-145 9.89 µM | HOP-62 14.9 µM | Hs-578T 54.1 µM | MDA-MB-435 2.34 µM | MDA-N 2.58 µM | HCC 2998 74.1 µM | EKVX 37.2 µM | RPMI-8226 3.03 µM | OVCAR-3 5.71 µM | NCI-H23 3.72 µM | SR 2.7 µM | SN12C 7.67 µM | K562 2.51 µM | HCT-116 3.3 µM | A498 13.9 µM | Malme-3M 20.4 µM | HL-60 2.43 µM | OVCAR-8 24.1 µM | SF-295 24.8 µM | SK-OV-3 43.8 µM | UACC-62 12.6 µM | NCI-H460 3.27 µM | HT-29 3.62 µM | CCRF-CEM 5.18 µM | SK-MEL-28 33.7 µM | 786-0 8.93 µM | UACC-257 13.1 µM | MCF7 3.23 µM | SNB-19 27 µM | PC-3 2.47 µM | OVCAR-5 18.6 µM | SNB-75 2.52 µM | A549 23.1 µM | MDA-MB-231 15.8 µM | IGROV-1 8.83 µM | SF-539 21 µM | RXF 393 3.35 µM | SK-MEL-5 14.8 µM | OVCAR-4 2.94 µM | SF-268 12.6 µM
